Measured values: patent US6335306B1, “Thermosensitive recording material of heat fixing type and method of fixing the same” (Oji Paper Co., Ltd., priority 1998, dated 2002)
Counter-ions that a name gives are not always drawn.

assay: Color Developer Test Method: solvent resistance of the color image, dioctyl phthalate (Mdd); assay type: physicochemical; conditions: colored portion coated with dioctyl phthalate, wiped, left standing 0.5 hour; Macbeth RD-914
Protocol: (§1) Thermosensitive recording paper sheet is prepared by a process which will be described below.
(§2) The above-described composition is pulverized with a paint shaker to an average particle diameter of about 1 μm.
(§3) The above-described composition is pulverized with a paint shaker to an average particle diameter of not larger than 1 μm.
(§4) The above-described composition is pulverized with a paint shaker to an average particle article diameter of not larger than 1 μm.
(§5) A coating liquid is obtained by mixing 60 parts of the dispersion A, 240 parts of the dispersion B, 80 parts of the dispersion C, and 90 parts of 10% aqueous polyvinyl alcohol solution under stirring. The coating liquid thus obtained is applied to the support so that the amount of the coating after drying would be 8.0 g/m^2 to form a thermosensitive color image-forming layer, and thereby to obtain a thermosensitive recording paper.
(§6) The sample thus obtained is printed with a coloring tester (THPMD; a product of Ohkura Electric Co., Ltd.) under conditions comprising a printing voltage of 21.7 V and printing pulse of 1.0 ms. The color density of the printed parts is determined with a Macbeth Reflection Color Density Tester RD-914 (a product of Macbeth).
(§7) The colored portion of the thermosensitive recording material thus obtained in (5) is coated with dioctyl phthalate or salad oil, which is then removed by wiping with Klinex, followed by leaving it for standing for 0.5 hour and measuring the density of the printed parts is determined with a Macbeth Reflection Color Density Tester RD-914 (a product of Macbeth).
(§8) The solvent resistance of the color image formed by using the color developer can be evaluated based on the Macbeth density (hereinafter referred to as “Mdd”) of 0.2 or higher, preferably 0.4 or higher according to the Color Developer Test Method as stated above wherein dioctyl phthalate is used. The solvent resistance of the color image formed using the color developer can be evaluated based on the Macbeth density (hereinafter referred to as “Mds”) of 0.5 or higher, preferably 0.6 or higher according to the Color Developer Test Method as stated above wherein salad oil is used.

SMILES	Mdd (Macbeth density of the printed part after coating with dioctyl phthalate)
Cc1ccc(S(=O)(=O)NC(=O)Nc2ccc(Oc3cccc(Oc4ccc(NC(=O)NS(=O)(=O)c5ccc(C)cc5)cc4)c3)cc2)cc1 [1,3-bis(4′-(p-toluenesulfonylaminocarbonylamino)phenyloxy)benzene]	1.0
CC(C)(c1ccc(O)cc1)c1ccc(O)cc1 [2,2-bis(4-hydroxyphenyl)propane, reference compound]	0.1
Cc1ccc(S(=O)(=O)NC(=O)Nc2cccc(S(=O)(=O)c3cccc(NC(=O)NS(=O)(=O)c4ccc(C)cc4)c3)c2)cc1 [3,3′-bis(p-toluenesulfonylaminocarbonylamino)diphenylsulfone]	0.63
Cc1ccc(S(=O)(=O)NC(=O)Nc2ccc(Oc3cccc(NC(=O)NS(=O)(=O)c4ccc(C)cc4)c3)cc2)cc1 [3,4′-bis(p-toluenesulfonylaminocarbonylamino)diphenyl ether]	0.93
O=C(Nc1ccc(Cc2ccc(NC(=O)NS(=O)(=O)c3ccccc3)cc2)cc1)NS(=O)(=O)c1ccccc1 [4,4′-bis(benzenesulfonylaminocarbonylamino)diphenyl methane]	0.8
Cc1ccccc1S(=O)(=O)NC(=O)Nc1ccc(Cc2ccc(NC(=O)NS(=O)(=O)c3ccccc3C)cc2)cc1 [4,4′-bis(o-toluenesulfonylaminocarbonylamino)diphenyl methane]	1.0
Cc1ccc(S(=O)(=O)NC(=O)Nc2ccc(Oc3ccc(NC(=O)NS(=O)(=O)c4ccc(C)cc4)cc3)cc2)cc1 [4,4′-bis(p-toluenesulfonylaminocarbonylamino)diphenyl ether]	1.0
Cc1ccc(S(=O)(=O)NC(=O)Nc2ccc(Sc3ccc(NC(=O)NS(=O)(=O)c4ccc(C)cc4)cc3)cc2)cc1 [4,4′-bis(p-toluenesulfonylaminocarbonylamino)diphenyl sulfide]	0.96
Cc1ccc(S(=O)(=O)NC(=O)Nc2ccc(Cc3ccc(NC(=O)NS(=O)(=O)c4ccc(C)cc4)cc3)cc2)cc1 [4,4′-bis(p-toluenesulfonylaminocarbonylamino)diphenylmethane]	1.0
Cc1ccc(S(=O)(=O)NC(=O)Nc2ccc(S(=O)(=O)c3ccc(NC(=O)NS(=O)(=O)c4ccc(C)cc4)cc3)cc2)cc1 [4,4′-bis(p-toluenesulfonylaminocarbonylamino)diphenylsulfone]	0.81
COc1ccc(OCCOc2ccc(C(=O)O)c(O)c2)cc1 [4-(2-(p-methoxyphenyloxy)ethyloxy)salicylic acid]	0.5

same assay, conditions: colored portion coated with dioctyl phthalate, wiped, left standing 0.5 hour; Macbeth RD-914; listed as 3,4′-bis(p-toluenesulfonylaminocarbonylamino)diphenyl ether

SMILES	Mdd (Macbeth density of the printed part after coating with dioctyl phthalate)
Cc1ccc(S(=O)(=O)NC(=O)Nc2ccc(Oc3cccc(NC(=O)NS(=O)(=O)c4ccc(C)cc4)c3)cc2)cc1 [3,4′-bis(p-toluenesulfonylaminocarbonylamino)diphenyl ether]	1.0

assay: log P, OECD Chemical Test Guideline No. 117, partition coefficient; conditions: OECD Guideline No. 117
Source text: The log P in the present invention is a value determined according to OECD Test, Chemical Test Guideline No. 117, Partition Coefficient; edited by Chemical Product Examination Association). The log P is the logarithm of the partition coefficient P. The higher the value of the partition coefficient, the higher the hydrophobicity; and the lower thereof, the higher the hydrophilicity.

SMILES	log P
C=CCOc1ccc(S(=O)(=O)c2ccc(OCC=C)cc2)cc1 [4,4′-diallyloxydiphenylsulfone]	3.3
O=C(CCCCC(=O)OCc1ccccc1Cl)OCc1ccccc1Cl [di-o-chlorobenzyl adipate]	5.8

same assay, conditions: n-octanol/water

SMILES	chromatographic logP
Cc1cccc(OCCOc2cccc(C)c2)c1 [1,2-bis(m-tolyloxy)ethane]	5
Cc1ccc(Oc2ccc(Oc3ccc(C)cc3)cc2)cc1 [1,4-bis(p-tolyloxy)benzene]	3.1
c1ccc(OCCOc2ccc3ccccc3c2)cc1 [1-phenoxy-2-β-naphthoxyethane]	5.2
COc1ccc(OCCOCCOc2ccc(OC)cc2)cc1 [bis(2-(4-methoxyphenoxy)ethyl) ether]	2.9
O=C(OCc1ccccc1)c1ccc(C(=O)OCc2ccccc2)cc1 [dibenzyl terephthalate]	5.7
CC(=O)CC(=O)Nc1ccccc1Cl [o-chloroacetoacetoanilide]	0.2
c1ccc(Cc2ccc(-c3ccccc3)cc2)cc1 [p-benzylbiphenyl]	6.3
Cc1ccc(OS(=O)(=O)c2c(C)cc(C)cc2C)cc1 [p-tolyl mesitylenesulfonate]	3.1
O=C(Oc1ccccc1)c1ccc2ccccc2c1O [phenyl 1-hydroxy-2-naphthoate]	5.1

same assay, conditions: n-octanol/water (OECD Test Guideline 117, HPLC method)

SMILES	chromatographic logP
c1ccc(OCCOc2ccccc2)cc1 [1,2-diphenoxyethane]	3.6
O=C(OCc1ccccc1)C(=O)OCc1ccccc1 [dibenzyl oxalate]	3.1
O=S(=O)(c1ccccc1)c1ccccc1 [diphenylsulfone]	1.5
O=C(Oc1ccccc1)c1ccc2ccccc2c1O [phenyl 1-hydroxy-2-naphthoate]	5.1
Cc1ccc(S(=O)(=O)Oc2ccccc2)cc1 [phenyl p-toluenesulfonate]	3.1

same assay, conditions: octanol/water

SMILES	chromatographic logP
Cc1ccc(CCc2ccc(C)c(C)c2)cc1C [1,2-bis(3,4-dimethylphenyl)ethane]	7.8
c1ccc(-c2cccc(-c3ccccc3)c2)cc1 [m-terphenyl]	6.16

assay: Color Developer Test Method: solvent resistance of the color image, salad oil (Mds); assay type: physicochemical; conditions: colored portion coated with salad oil, wiped, left standing 0.5 hour; Macbeth RD-914
Protocol: as §1, §2, §3, §4, §5, §6, §7, §8

SMILES	Mds (Macbeth density of the printed part after coating with salad oil)
Cc1ccc(S(=O)(=O)NC(=O)Nc2cccc(NC(=O)NS(=O)(=O)c3ccc(C)cc3)c2)cc1 [1,3-bis(p-toluenesulfonylaminocarbonylamino)benzene]	1.2
Cc1ccc(S(=O)(=O)NC(=O)Nc2ccc(NC(=O)NS(=O)(=O)c3ccc(C)cc3)cc2)cc1 [1,4-bis(p-toluenesulfonylaminocarbonylamino)benzene]	0.84
Cc1ccc(S(=O)(=O)NC(=O)Nc2cccc3c(NC(=O)NS(=O)(=O)c4ccc(C)cc4)cccc23)cc1 [1,5-bis(p-toluenesulfonylaminocarbonylamino)naphthalene]	1.05
Cc1ccc(S(=O)(=O)NC(=O)Nc2cccc3cccc(NC(=O)NS(=O)(=O)c4ccc(C)cc4)c23)cc1 [1,8-bis(p-toluenesulfonylaminocarbonylamino)naphthalene]	0.73
O=S(=O)(c1ccccc1)c1ccc(O)c(S(=O)(=O)c2ccccc2)c1 [2,4-bis(phenylsulfonyl)phenol]	0.6
O=C(Nc1ccc(Cc2ccc(NC(=O)NS(=O)(=O)c3cccc4ccccc34)cc2)cc1)NS(=O)(=O)c1cccc2ccccc12 [4,4′-bis(1-naphthalenesulfonylaminocarbonylamino) diphenyl methane]	0.5
